Laboratory results from patent US20230150980A1, “COLLAGEN 1 TRANSLATION INHIBITORS AND METHODS OF USE THEREOF” (Anima Biotech Inc., priority 2020, published 2023).

Test system: collagen 1
Experiment: WI-38 collagen 1 inhibition assay (anti-Collagen I immunofluorescence);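 further: minus sign means inactive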
Format: cell-based
Settings: cellular EC50, WI-38 human lung fibroblasts, values are LogEC50 classes
Procedure: WI-38 cells (ATCC® CCL-75™) were maintained in MEM EAGLE (NEAA) W. GLUTAMIN (Biological Industries, Cat. 06-1040-15-1A) containing 10% fetal bovine serum (FBS) and 1% Penicillin-Streptomycin Solution. To synchronize the cells (cell cycle synchronization) prior to induction of collagen synthesis, the cells were starved using DMEM-low glucose supplemented with 0.25% FBS for two hours and then without FBS for 24 hours. To induce collagen synthesis, the cells were treated with a collagen induction cocktail for the indicated time. Compounds were added with induction.
Cells in 96-well or 384-well plates were fixed for 20 min in 4% paraformaldehyde (PFA, ENCO, Cat. sc-281692). Following two washes with 1×PBS, cells were treated with hydrogen peroxide (Acros, Cat: 7722-84-1) for 10 minutes and then washed twice with 1×PBS. Cells were then incubated over-night at 4° C. with Anti-Collagen I (Sigma-Aldrich, Cat: C 2456) antibody and washed three times with 1×PBS. Cell were then incubated with a suitable secondary fluorescently-tagged antibody and nuclei stained with DAPI, for 1 hour, and then washed 3 times with 1×PBS.
Cell images were taken with Operetta (Perkin Elmer, USA), a wide-field fluorescence microscope at 20× magnification. After acquisition, the images were transferred to Columbus software (Perkin-Elmer) for image analysis. In Columbus, cells were identified by their nucleus, using the “Find Nuceli” module and cytoplasm was detected based on the secondary antibody channel. Subsequently, the fluorescent signal was enumerated in the identified cell region. Data was exported to a data analysis and visualization software, Tibco Spotfire, USA.

Row | SMILES | COL1 Efficacy (LogEC50)
1 | c1cncc(CN2CCN(Cc3cc4ccccc4[nH]3)CC2)c1 [Compound 218, 2-[[4-(3-pyridylmethyl)piperazin-1-yl]methyl]-1H-indole] | + (+: >−5)
2 | Cc1ncnc(N2CCN(Cc3nc4ccc(F)cc4o3)CC2)c1Cl [compound 327, 2-((4-(5-chloro-6-methylpyrimidin-4-yl)piperazin-1-yl)methyl)-6-fluorobenzo[d]oxazole] | ++ (++: −5 to −6)
3 | Cc1ncnc(N2CCN(Cc3nc4ccccc4o3)CC2)c1C=O [compound 336, 4-(4-(benzo[d]oxazol-2-ylmethyl)piperazin-1-yl)-6-methylpyrimidine-5-carbaldehyde] | ++ (++: −5 to −6)
4 | Cn1cnc(N2CCN(Cc3nc4ccccc4o3)CC2)n1 [compound 326, 2-((4-(1-methyl-1H-1,2,4-triazol-3-yl)piperazin-1-yl)methyl)benzo[d]oxazole] | + (+: >−5)
5 | c1ccc2[nH]c(CN3C[C@@H]4CN(c5ccncc5)C[C@@H]4C3)cc2c1 [compound 285, 2-[[(3aS,6aR)-5-(4-pyridyl)-1,3,3a,4,6,6a-hexahydropyrrolo[3,4-c]pyrrol-2-yl]methyl]-1H-indole] | −
6 | c1ccc2[nH]c(CN3CCN(c4ccncc4)CC3)cc2c1 [Compound 212, 2-((4-(pyridin-4-yl)piperazin-1-yl)methyl)-1H-indole] | +++ (+++: <−6)
7 | CN1CCC(N2CCN(Cc3cc4ccccc4[nH]3)CC2)CC1 [Compound 227, 2-[[4-(1-methyl-4-piperidyl)piperazin-1-yl]methyl]-1H-indole] | −
8 | Cc1ncnc(N2CCN(Cc3nc4ccccc4o3)CC2)c1F [compound 309, 2-((4-(5-fluoro-6-methylpyrimidin-4-yl)piperazin-1-yl)methyl)benzo[d]oxazole] | ++ (++: −5 to −6)
9 | c1ccn2cc(CN3CCN(c4ccncc4)CC3)nc2c1 [compound 274, 2-[[4-(4-pyridyl)piperazin-1-yl]methyl]imidazo[1,2-a]pyridine] | −
10 | Cc1ncnc(N2CCN(Cc3nc4cc(F)ccc4o3)CC2)c1C [compound 297, 2-((4-(5,6-dimethylpyrimidin-4-yl)piperazin-1-yl)methyl)-5-fluorobenzo[d]oxazole] | ++ (++: −5 to −6)
11 | FC(F)(F)c1ccc2nc(CN3CCN(c4ccccc4)CC3)[nH]c2c1 [compound 200] | −
12 | C#CCCC1(CCOc2ccc3cc(CN4CCN(c5ncncc5CC)CC4)[nH]c3c2)N=N1 [compound 338, 6-(2-(3-(but-3-yn-1-yl)-3H-diazirin-3-yl)ethoxy)-2-((4-(5-ethylpyrimidin-4-yl)piperazin-1-yl)methyl)-1H-indole] | +++ (+++: <−6)
13 | Cc1ncnc(N2CCN(Cc3nc4ccccc4o3)CC2)c1Cl [compound 310, 2-((4-(5-chloro-6-methylpyrimidin-4-yl)piperazin-1-yl)methyl)benzo[d]oxazole] | ++ (++: −5 to −6)
14 | COc1ccc2[nH]c(CN3CCN(c4ccncc4)CC3)cc2c1 [compound 223, 5-methoxy-2-[[4-(4-pyridyl)piperazin-1-yl]methyl]-1H-indole] | −
15 | C#CCCC1(CCOc2cncnc2N2CCN(Cc3cc4ccccc4[nH]3)CC2)N=N1 [compound 337, 2-((4-(5-(2-(3-(but-3-yn-1-yl)-3H-diazirin-3-yl)ethoxy)pyrimidin-4-yl)piperazin-1-yl)methyl)-1H-indole] | ++ (++: −5 to −6)
16 | FC(F)(F)c1ccc2cc(CN3CCN(c4ccncc4)CC3)[nH]c2c1 [compound 255, 2-[[4-(4-pyridyl)piperazin-1-yl]methyl]-6-(trifluoromethyl)-1H-indole] | +++ (+++: <−6)
17 | Cc1ncnc(N2CCN(Cc3nc4c(C(F)(F)F)cccc4o3)CC2)c1C [compound 295, 2-((4-(5,6-dimethylpyrimidin-4-yl)piperazin-1-yl)methyl)-4-(trifluoromethyl)benzo[d]oxazole] | +++ (+++: <−6)
18 | c1ccc2[nH]c(CN3CC4(C3)CN(c3ccncc3)C4)cc2c1 [compound 271, 2-[[2-(4-pyridyl)-2,6-diazaspiro[3.3]heptan-6-yl]methyl]-1H-indole] | −
19 | COCCOc1ccc2c(c1)cc(CN1CCN(c3ccncc3)CC1)n2CCOC [compound 261, 5-(2-methoxyethoxy)-1-(2-methoxyethyl)-2-((4-(pyridin-4-yl)piperazin-1-yl)methyl)-1H-indole] | −
20 | Cn1ccc(N2CCN(Cc3nc4ccccc4o3)CC2)n1 [compound 324, 2-((4-(1-methyl-1H-pyrazol-3-yl)piperazin-1-yl)methyl)benzo[d]oxazole] | + (+: >−5)
21 | N#Cc1ccc2[nH]c(CN3CCN(c4ccncc4)CC3)cc2c1 [compound 256, 2-[[4-(4-pyridyl)piperazin-1-yl]methyl]-1H-indole-5-carbonitrile] | +++ (+++: <−6)

Row | SMILES | COL1 Efficacy (LogEC50)
22 | CCc1cncnc1N1CCN(Cc2nc3ccc(COCCOC)cc3[nH]2)CC1 [compound 289, 2-((4-(5-ethylpyrimidin-4-yl)piperazin-1-yl)methyl)-6-((2-methoxyethoxy)methyl)-1H-benzo[d]imidazole] | +++ (+++: <−6)
23 | Cc1ncnc(N2CCN(Cc3nc4ccccc4o3)CC2)c1C(F)(F)F [compound 311, 2-((4-(6-methyl-5-(trifluoromethyl)pyrimidin-4-yl)piperazin-1-yl)methyl)benzo[d]oxazole] | + (+: >−5)
24 | Cc1ncnc(N2CCN(Cc3nc4ccc(Cl)cc4o3)CC2)c1C [compound 302, 6-chloro-2-((4-(5,6-dimethylpyrimidin-4-yl)piperazin-1-yl)methyl)benzo[d]oxazole] | +++ (+++: <−6)
25 | Cc1ncnc(N2CCN(Cc3nc4cccc(F)c4o3)CC2)c1C [compound 305, 2-((4-(5,6-dimethylpyrimidin-4-yl)piperazin-1-yl)methyl)-7-fluorobenzo[d]oxazole] | ++ (++: −5 to −6)
26 | Brc1ccc2[nH]c(CN3CCN(c4ccncc4)CC3)cc2c1 [compound 215, 5-bromo-2-[[4-(4-pyridyl)piperazin-1-yl]methyl]-1H-indole] | −
27 | Cc1ncnc(N2CCN(Cc3nc4ccncc4o3)CC2)c1C [compound 330, 2-((4-(5,6-dimethylpyrimidin-4-yl)piperazin-1-yl)methyl)oxazolo[5,4-c]pyridine] | ++ (++: −5 to −6)
28 | Clc1ccc2cc(CN3CCN(c4ccncc4)CC3)[nH]c2c1 [compound 240, 6-chloro-2-[[4-(4-pyridyl)piperazin-1-yl]methyl]-1H-indole] | + (+: >−5)
29 | c1ccc(-c2nc3c(c(N4CCN(Cc5cc6ccccc6[nH]5)CC4)n2)CCC3)cc1 [compound 207] | ++ (++: −5 to −6)
30 | CCn1cc(N2CCN(Cc3nc4ccccc4o3)CC2)nn1 [compound 328] | −
31 | CC(C)n1cc(N2CCN(Cc3nc4ccccc4o3)CC2)nn1 [compound 339] | −
32 | Clc1cccc2cc(CN3CCN(c4ccncc4)CC3)[nH]c12 [compound 247, 7-chloro-2-[[4-(4-pyridyl)piperazin-1-yl]methyl]-1H-indole] | +++ (+++: <−6)
33 | Cc1ncnc(N2CCN(Cc3[nH]c4ccc(Cl)cc4c3C)CC2)c1C [compound 204] | ++ (++: −5 to −6)
34 | FC(F)(F)c1ccc2nc(CN3CCN(c4ccncc4)CC3)[nH]c2c1 [Compound 209, 2-((4-(pyridin-4-yl)piperazin-1-yl)methyl)-6-(trifluoromethyl)-1H-benzo[d]imidazole] | + (+: >−5)
35 | c1ccc(N2CCN(Cc3cc4ccccc4[nH]3)CC2)cc1 [compound 241, 2-[(4-phenylpiperazin-1-yl)methyl]-1H-indole] | ++ (++: −5 to −6)
36 | c1ccc2nc(N3CCN(Cc4cc5ccccc5[nH]4)CC3)ccc2c1 [Compound 237, 2-[4-(1H-indol-2-ylmethyl)piperazin-1-yl]quinolone] | ++ (++: −5 to −6)
37 | Cn1cc(N2CCN(Cc3cc4ccc(F)cc4[nH]3)CC2)nn1 [compound 331] | −
38 | c1cc(N2CCN(Cc3ccc4cc[nH]c4c3)CC2)ccn1 [compound 265, 6-[[4-(4-pyridyl)piperazin-1-yl]methyl]-1H-indole] | ++ (++: −5 to −6)
39 | c1ccc(N2CCN(Cc3cc4ccccc4[nH]3)CC2)nc1 [Compound 216, 2-[[4-(2-pyridyl)piperazin-1-yl]methyl]-1H-indole] | + (+: >−5)
40 | Cc1ncnc(N2CCN(Cc3nc4ccc(F)cc4o3)CC2)c1C [compound 301, 2-((4-(5,6-dimethylpyrimidin-4-yl)piperazin-1-yl)methyl)-6-fluorobenzo[d]oxazole] | +++ (+++: <−6)
41 | COCCOCc1cncnc1N1CCN(Cc2cc3ccccc3[nH]2)CC1 [compound 287, 2-((4-(5-((2-methoxyethoxy)methyl)pyrimidin-4-yl)piperazin-1-yl)methyl)-1H-indole] | −
